Data published in patent US9458104B2 (priority 2012, dated 2016).

Key:
RORγ = target: T1, RORγ (UniProt P51449); assay type: cell-based; conditions: 293T cells, 16 h; for pIC50 (FF): firefly (FF) luciferase; for pIC50 (REN): renilla normalised (RENnorm) luciferase
T1 construct: hRORg-LBD|aa259-518|NP_005051.2; hRORgt|aa1-497|NP_001001523 (RORg, t isoform, 497aa); mRORg-LBD|aa264-516|NP_035411
T1 sequence (P51449 1-518): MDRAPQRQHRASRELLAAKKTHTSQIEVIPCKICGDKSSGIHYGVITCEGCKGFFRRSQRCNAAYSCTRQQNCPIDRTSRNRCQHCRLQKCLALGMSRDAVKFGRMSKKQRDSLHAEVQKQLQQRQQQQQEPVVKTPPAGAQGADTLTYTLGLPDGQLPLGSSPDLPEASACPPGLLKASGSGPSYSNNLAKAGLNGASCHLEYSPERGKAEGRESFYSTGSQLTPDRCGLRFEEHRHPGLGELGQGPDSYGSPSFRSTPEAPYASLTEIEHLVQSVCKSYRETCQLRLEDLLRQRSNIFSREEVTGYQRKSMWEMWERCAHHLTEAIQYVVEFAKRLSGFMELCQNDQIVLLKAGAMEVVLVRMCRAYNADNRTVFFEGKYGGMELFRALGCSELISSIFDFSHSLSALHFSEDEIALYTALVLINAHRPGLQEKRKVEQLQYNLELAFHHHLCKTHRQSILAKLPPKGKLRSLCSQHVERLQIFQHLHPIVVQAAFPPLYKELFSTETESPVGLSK
Description: Determination of a ligand mediated Gal4 promoter driven transactivation to quantify ligand binding to RORγ was performed as follows: DNA encoding three different RORγ. protein fragments was cloned into vector pCMV-BD (Stratagene). Expression was under control of a CMV promoter and as fusion to the DNA-binding domain of the yeast protein GAL4. Other vectors used were pFR-Luc (Stratagene) as regulated reporter plasmid. pFR-Luc contains a synthetic promoter with five tandem repeats of the yeast GAL4 binding sites that control expression of the Photinus pyralis (American firefly) luciferase gene. In order to improve experimental accuracy the plasmid pRL-CMV was cotransfected. pRL-CMV contains the constitutive CMV promoter, controlling the expression of the Renilla reniformis luciferase.
All Gal4 reporter gene assays were done in 293T cells (DSMZ (German Collection of Microorganisms and Cell Cultures), Braunschweig, Germany, ACC635) grown in Minimum Essential Medium (MEM) with Phenol Red. The medium is supplemented with 10% fetal bovine serum, 0.1 mM nonessential amino acids, 1 mM sodium pyruvate, 1% Glutamax and 100 units Penicilin/[…] per mL at 37° C. in 5% CO2.
For the assay, […] were plated per well in 96 well plates in 100 μL per well, incubated over night at 37° C. in 5% CO2. The following day, medium was discarded and the cells were transiently transfected using 20 μL per well of a OptiMEM—PEI-based transfection-reagent (Sigma-Aldrich, 408727) including the three plasmids described above. About 4 h after addition of the transfection solution, fresh Minimal Essential Medium (MEM, same composition as used for plating cells, but without serum) was added. Then compound stocks, prediluted in MEM (same composition as used for plating cells) were added (final vehicle concentration not exceeding 0.1%).
All experiments were done at least in triplicates.
It is understood that the data illustrated below may have reasonable variation depending on the specific conditions and procedures used by the person conducting the test.

[1] = target: T2, RORγ ligand binding domain (LBD) (Homo sapiens, UniProt P51449); assay: TR-FRET Activity Assay (ligand sensing assay, RORγ-LBD / coactivator peptide interaction); assay type: biochemical
T2 construct: made in house; host or cells: E. coli BL-21 (BL3), vector pDEST15
T2 sequence (P51449 269-508 limits assumed): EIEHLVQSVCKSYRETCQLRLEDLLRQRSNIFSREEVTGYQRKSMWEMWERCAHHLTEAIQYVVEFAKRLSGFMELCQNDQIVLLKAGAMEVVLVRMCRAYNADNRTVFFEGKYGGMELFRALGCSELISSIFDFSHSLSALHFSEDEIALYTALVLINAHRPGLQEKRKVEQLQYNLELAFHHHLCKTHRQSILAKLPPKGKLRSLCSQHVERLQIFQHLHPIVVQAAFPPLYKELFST
Description: This method measures the ability of putative ligands to modulate the interaction between the purified bacterial expressed RORγ ligand binding domain (LBD) and synthetic N-terminally biotinylated peptides which are derived from nuclear receptor coactivator proteins such as but not limited to SRC1 (NcoA1), SRC2 (NcoA2, TIF2), SRC3 (NcoA3), PGC1α, PGC1β, CBP, GRIP1, TRAP220, RIP140.
The ligand-binding domain (LBD) of RORγ was expressed as fusion protein with GST in […] cells using the vector pDEST15. Cells were lysed by lysozyme-treatment and sonication, and the fusion proteins purified over glutathione sepharose (Pharmacia) according to the manufacturers instructions. For screening of compounds for their influence on the RORγ-peptide interaction, the LANCE technology (Perkin Elmer) was applied. This method relies on the binding dependent energy transfer from a donor to an acceptor fluorophor attached to the binding partner of interest. For ease of handling and reduction of background from compound fluorescence LANCE technology makes use of generic fluorophore labels and time resolved detection assays were done in a final volume of 25 μL in a 384 well plate, in a Tris-based buffer system (20 mM Tris-HCl pH6.8; 60 mM KCl, 1 mM DTT; 5 mM MgCl2; 35 ng/μL BSA), containing 20-60 ng/well recombinantly expressed RORγ-LBD fused to GST, 200-600 nM N-terminally biotinylated peptide, 200 ng/well Streptavidin-xIAPC conjugate (Prozyme) and 6-10 ng/well Eu W1024-antiGST (Perkin Elmer). DMSO content of the samples was kept at 1%.
After generation of the Tris-based buffer system, the potentially RORγ modulating ligands were diluted. […] The LANCE signal was detected by a Perkin Elmer EnVision™ Multilabel Counter. The results were visualized by plotting the ratio between the emitted light at 665 nm and 615 nm. […] Ligands that promote the complex formation induce a concentration-dependent increase in time-resolved fluorescent signal.
To assess the antagonistic potential of the compounds, IC50 values were determined using a Ligand Sensing Assay based on Time-resolved Fluorescence Energy Transfer (TR-FRET) as described above. The normalised TR-FRET assay values, using the following equation: 1000*665 nm measurement value/615 nm measurement value, were transferred to the program GraphPad Prism to generate graphs and dose response curves using the following equation: […]
This is identical to the “four parameter logistic equation”. The IC50 values are calculated using this equation. […] Is is understood that the data illustrated below may have reasonable variation depending on the specific conditions and procedures used by the person conducting the test.

SMILES | pIC50 (FF) (RORγ) | pIC50 (REN) (RORγ) | IC50 [1]
CC(C)(C)NS(=O)(=O)c1ccc(-c2cc(C(=O)NCCC(C)(C)C(=O)O)nn2CC2CCCCC2)cc1C(F)(F)F [100/7] | 6.2 | 6.3 | 1260 nM
Cc1c(C(=O)NC2CCOCC2)cn(-c2ccc(S(=O)(=O)NC(C)(C)C)c(C(C)(C)C)c2)c1CC1CCCCC1 [4/2] | 7.3 | 7.5 | 631 nM
Cc1c(C(=O)N[C@H]2C[C@H](C(=O)O)C2)cn(-c2cc(C(C)(C)C)cc(C3(C)CC3)c2)c1CC1CCCCC1 [1/5] | 7.6 | 8.0 | 1000 nM
CC(C)(C)c1cc(-n2nc(C(N)=O)c(Cl)c2CC2CCCCC2)cc(C(C)(C)C)c1 [Example 313, 4-Chloro-5-(cyclohexylmethyl)-1-(3,5-di-tert-butylphenyl)-1H-pyrazole-3-carboxamide] | 6.3 | 6.4 | 100 nM
Cc1c(C(=O)NCCC(C)(C)C(=O)O)c(Cl)n(-c2ccc(S(=O)(=O)NC(C)(C)C)c(C(F)(F)F)c2)c1CC1CCCCC1 [Example 9, 4-(1-(4-(N-(tert-Butyl)sulfamoyl)-3-(trifluoromethyl)phenyl)-2-chloro-5-(cyclohexylmethyl)-4-methyl-1H-pyrrole-3-carboxamido)-2,2-dimethylbutanoic acid] | 8.4 | 8.4 | 794 nM
CC(C)(C)c1cc(-n2nc(C(N)=O)c(Cl)c2CC2CCCCC2)cc(C(C)(C)C)n1 [Example 315, 4-Chloro-5-(cyclohexylmethyl)-1-(2,6-di-tert-butylpyridin-4-yl)-1H-pyrazole-3-carboxamide] | 6.7 | 6.7 | 126 nM
Cn1c(C(=O)NC2CCOCC2)cc(CC2CCCCC2)c1-c1cc(C(C)(C)C)cc(C2(C)CC2)c1 [19/2] | 6.9 | 6.9 | 501 nM
Cn1c(C(=O)N[C@H]2CC[C@H](C(=O)O)CC2)cc(-c2cc(C(C)(C)C)cc(C3(C)CC3)c2)c1CC1CCCCC1 [8/11] | 7.3 | 7.4 | 1260 nM
Cc1c(C(=O)NC2CCOCC2)cc(-c2ccc(S(=O)(=O)NC(C)(C)C)c(C(F)(F)F)c2)n1CC(C(F)(F)F)C(F)(F)F [Example 319, 5-(4-(N-(tert-Butyl)sulfamoyl)-3-(trifluoromethyl)phenyl)-2-methyl-N-(tetrahydro-2H-pyran-4-yl)-1-(3,3,3-trifluoro-2-(trifluoromethyl)propyl)-1H-pyrrole-3-carboxamide] | 6.0 | 5.8 | 5010 nM
COC(C)(C)c1cc(-n2nc(C(N)=O)c(Cl)c2CC2CCCCC2)cc(C(C)(C)C)c1 [Example 315/1] | 6.0/6.0/6.0 | 6.0/6.0/6.0 | 1000 nM
Cn1c(C(=O)N[C@H]2C[C@H](C(=O)O)C2)c(Cl)c(CC2CCCCC2)c1-c1cc(C(C)(C)C)cc(C2(C)CC2)c1 [Example 18/1] | 6.6 | 6.7 | 794 nM
CC(C)(C)c1cc(-c2nc(C(=O)NC3CC3)nn2CC2CCCCC2)cc(C(C)(C)C)c1 [Example 307, 1-(Cyclohexylmethyl)-N-cyclopropyl-5-(3,5-di-tert-butylphenyl)-1H-1,2,4-triazole-3-carboxamide] | 5.9 | 6.1 | 794 nM
Cc1c(C(=O)N[C@H]2C[C@H](C(=O)O)C2)cn(-c2cc(C(C)(C)C)cc(C3(C)CC3)c2)c1S(=O)(=O)C1CCCCC1 [Example 23, trans-3-(1-(3-(tert-Butyl)-5-(1-methylcyclopropyl)phenyl)-5-(cyclohexylsulfonyl)-4-methyl-1H-pyrrole-3-carboxamido)cyclobutanecarboxylic acid] | 6.4 | 6.5 | 1580 nM
C[C@@H](O)CNC(=O)c1nc(-c2cc(C(C)(C)C)c(O)c(C(C)(C)C)c2)n(CC2CCCCC2)n1 [308/7] | 5.7 | 5.9 | 2510 nM
Cc1c(C(=O)N[C@H]2C[C@H](C(=O)O)C2)cn(-c2cc(C(C)(C)C)cc(C3(C)CC3)c2)c1C(=O)c1ccccc1 [Example 301, (trans)-3-(5-Benzoyl-1-(3-(tert-butyl)-5-(1-methylcyclopropyl)phenyl)-4-methyl-1H-pyrrole-3-carboxamido)cyclobutanecarboxylic acid] | 6.7 | 6.8 | 501 nM
CC(C)(C)c1cc(-c2cc(C(=O)N[C@H]3C[C@H](C(=O)O)C3)nn2CC2CCCCC2)cc(C2(C)CC2)c1 [Example 100, (trans)-3-(5-(3-(tert-Butyl)-5-(1-methylcyclopropyl)phenyl)-1-(cyclohexylmethyl)-1H-pyrazole-3-carboxamido)cyclobutanecarboxylic acid] | 6.9 | 7.0 | 501 nM
